Reference: patent US10603319B2, “Pyrimidine derivatives and their use in treating or preventing a respiratory syncytial virus infection” (REVIRAL LIMITED, priority 2016, dated 2020)

Key:
RSV A2_F = target: T1, RSV A2_F (Human respiratory syncytial virus A, UniProt P03420); assay: RSV fusion assay (luciferase reporter, HEK 293T/17 cells transfected with A2_F); assay type: cell-based; settings: 24 hr
T1 construct: expressed in transfected cells; host or cells: HEK 293T/17
Experimental: HEK 293T/17 cells were cultured in T75 culture flasks in Dulbecco's medium (DMEM) containing 10% FBS and 1× Penicillin-Streptomycin (Pen/Strep) and warmed to 37° C. prior to use. The cells were passaged by first washing briefly with 3 ml phosphate buffered saline (PBS) followed by a 4 min incubation with […] at 37° C. 7 ml media was then added to the flask and the cells dispersed via pipetting (×3) against the bottom of the flask. Two further T75 flasks were each seeded with 2×10^6 cells in 15 ml fresh media.
Cells were seeded on the T75 plates at the same density as on the 6-well plates the area of a T75 flask and one 1.75 cm radius well from a 6-well plate were compared. 7.79×2 ml of 3×10^5 cells ml^−1 was used to seed a single T75 flask.
HEK cells were removed from a T75 flask as described above. The cells were counted and diluted to 3×10^5 cells/ml in fresh media. Two T75 flasks were each seeded with 15.58 ml diluted cells.
The plasmid DNA (for pFR-Luc and pcDNA3.1_Gal4/NFκB) to be transfected into the HEK cells was first prepared in serum free media (DMEM+Pen/Strep) containing the transfection reagent Fugene 6 (Promega). Transfections were set up as follows (Luc=pFR_Luc, Gal4=pcDNA3.1+_Gal4/NFκB, A2_F=pcDNA3.1+_A2_F)
Serum free media was placed in a 1.5 ml eppendorf tube then the fugene 6 was added into the media. The tube was vortexed for 1 s before being incubated at RT for 5 min. The plasmid DNA was then added to the tube, vortexed for 1 s, then incubated at RT for 15 min
The transfection reagents were then added to the appropriate T75 flask by tipping the flask on end and adding the reagents directly to the media already in the flask. The flask was then tipped on its back so the media could be mixed thoroughly whilst not disturbing the cells before placing the flask the right way up and incubating overnight at 37° C. and 5% CO2.
Compounds were diluted (in a polypropylene round-bottomed 96 well plate) 1:3 in a twelve point dilution curve to give top [final] of either 3.3 μM, 1 μM, 500 nM 200 nM or 100 nM. The Control compound was always run at a concentration of 100 nM.
The cells were then counted and diluted to 4×10^5 cells/ml in fresh media. 50 μl of transfection population 1 cells were added to all wells of the assay plates. 100 μl diluted compound (2 rows per compound), standard curve (one row) and controls (100 nM RV (100% inhibition, four wells), DMSO (0% inhibition, eight wells)) were added to the appropriate wells. 50 μl of the diluted (4×10^5 cells/ml) transfection population 2 cells when then added to all wells.
The plates were then incubated for 24 hr at 37° C. and 5% CO2
Buffers were prepared for the luciferase assay (20 mM tricine, 10 mM MgSO4, 1 mM EDTA, 10 mM DTT) and lysis (25 mM tris-phosphate, 8 mM MgCl2, 1 mM DTT, 1% Triton X-100, 15% glycerol) and stored at −20° C.
Luminescence was measured as described:
Media was discarded into Virkon and the plates washed with 100 ul PBS per well. 20 ul/well of lysis buffer was added to each well and incubated shaking for 5 min at RT. Luciferin was added to LAAB at a dilution of 1:50 to give a working luciferin buffer. 100 μl working luciferin buffer was added to each well and luminescence was measured immediately. […]

RSV A2 VR-1540 = assay: Plaque Reduction Assay 2 (HEp-2 cells, virospot count); assay type: cell-based; settings: human respiratory syncytial virus, 24 h; RSV A2, HEp-2 cells, 1 day
From the text: Plaque Reduction Assay 2:
This RSV plaque reduction assay is an infectivity assay which allows quantification of the number of infectious units in a distinct foci of RSV infection. This is indicated by zones of viral antigen detected by specific antibody staining within a monolayer of otherwise healthy tissue culture cells. As each plaque originates from a single infectious virus particle an accurate calculation of the anti-viral effect can be obtained by counting plaques in the presence and absence of an anti-viral compound. HEp-2 cells (ATCC, CCL23) were passaged in flasks and seeded in 96-well plates in DMEM containing antibiotics and supplemented with 10% FBS. During inoculation and subsequent incubation, cells were cultured in DMEM containing 3% FBS. 100 plaque forming unit (PFU)/well of RSV (RSV A2 VR-1540) was mixed with ten serial dilutions of compound. Subsequently, 100 μL of the virus/compound mixtures was added to confluent HEp-2 cell monolayers. The cells and virus/compound mixtures were incubated at 35° C. in a humidified 5% CO2 incubator for 1 day.
Cells were washed twice with PBS before adding 50% v/v EtOH/MeOH, and then stored at −20° C. On the day of the staining, fixative was first removed from the plates. Plates were washed 3× with PBS. A pre-titrated amount of the primary antibody was added in 60 μL PBS/2% milk powder, and plates incubated for 1 h at rt. The plates were washed 3× with PBS/0.05% Tween20 before addition of goat anti-mouse horse radish peroxidase in 60 μL PBS/2% milk powder, and incubated for 1 h at rt. Following three wash steps with PBS/0.05% Tween20, 60 μL ready-to-use TrueBlue was added and plates were incubated at rt for 10-15 min before adding MilliQ water. Plates were washed once with water, incubated for 30-60 min and after removal of water, air-dried in the dark.
Plates were scanned and analyzed using the Immunospot S6 UV analyzer, which is equipped with BioSpot analysis software for counting immunostained plaques (virospots). Plaque counts were used to calculate % infection relative to the mean of the spot count (SC) in the virus control wells for RSV. IC50/IC90 values were calculated as 50% or 90% reduction in signal, respectively, by interpolation of inhibition curves fitted with a 4-parameter nonlinear regression with a variable slope in GraphPad 5.0 (Prism).

[1] = Fusion activity IC50 μM, HEK 293T/17 cells
[2] = Fusion activity PIC50, HEK 293T/17 cells

T1 sequence (P03420 137-574): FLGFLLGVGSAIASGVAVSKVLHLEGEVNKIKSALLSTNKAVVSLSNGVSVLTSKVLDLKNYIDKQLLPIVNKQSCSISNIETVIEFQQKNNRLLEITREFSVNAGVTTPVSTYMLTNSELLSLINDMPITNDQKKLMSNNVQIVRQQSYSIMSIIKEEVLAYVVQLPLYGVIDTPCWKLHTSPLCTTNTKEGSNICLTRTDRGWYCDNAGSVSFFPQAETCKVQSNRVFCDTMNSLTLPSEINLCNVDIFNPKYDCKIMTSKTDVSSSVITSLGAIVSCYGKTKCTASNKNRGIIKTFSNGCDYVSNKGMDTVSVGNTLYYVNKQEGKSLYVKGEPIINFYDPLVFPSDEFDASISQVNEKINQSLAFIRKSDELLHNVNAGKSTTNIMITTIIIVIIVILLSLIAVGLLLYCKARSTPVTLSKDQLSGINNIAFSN
T1 sequence (P03420 26-109): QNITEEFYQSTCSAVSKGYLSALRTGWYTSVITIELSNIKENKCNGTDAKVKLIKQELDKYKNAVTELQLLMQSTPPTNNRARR

SMILES | IC50 (RSV A2_F; [1]) | IC50 (RSV A2 VR-1540) | IC50 (RSV A2_F; [2])
NC1CCN(c2ncc(CN3C(=O)C4(CC4)c4ccc(F)cc43)c(NCCCCCO)n2)C1 (centres unmarked) [Compound 19, 1′-{[2-(3-Aminopyrrolidin-1-yl)-4-[(5-hydroxypentyl)amino]pyrimidin-5-yl]methyl}-6′-fluoro-1′,2′-dihydrospiro[cyclopropane-1,3′-indole]-2′-one] | 0.362 µM |  | 
CCCNc1nc(N2CCC(N)C2)ncc1CN1C(=O)C2(CC2)c2ccc(F)cc21 (centres unmarked) [Compound 28, 1′-{[2-(3-Aminopyrrolidin-1-yl)-4-(propylamino)pyrimidin-5-yl]methyl}-6′-fluoro-1′,2′-dihydrospiro[cyclopropane-1,3′-indole]-2′-one] | 1.23 µM | 0.063 µM | 
CCNc1nc(N2CCC(N)C2)ncc1CN1C(=O)C2(CC2)c2ccc(F)cc21 (centres unmarked) [Compound 29, 1′-{[2-(3-Aminopyrrolidin-1-yl)-4-(ethylamino)pyrimidin-5-yl]methyl}-6′-fluoro-1′,2′-dihydrospiro[cyclopropane-1,3′-indole]-2′-one] | 1.17 µM | 0.74 µM | 
NC1CCN(c2ncc(CN3C(=O)C4(CC4)c4ccc(F)cc43)c(N3CCOCC3)n2)C1 (centres unmarked) [Compound 9, 1′-((2-(3-Aminopyrrolidin-1-yl)-4-morpholinopyrimidin-5-yl)methyl)-6′-fluorospiro[cyclopropane-1,3′-indolin]-2′-one] | 3.66 µM |  | 
NC1CCN(c2ncc(CN3C(=O)C4(CC4)c4ccc(F)cc43)c(SCCCCO)n2)C1 (centres unmarked) [Compound 16, 1′-{[2-(3-Aminopyrrolidin-1-yl)-4-[(4-hydroxybutyl)sulfanyl]pyrimidin-5-yl]methyl}-6′-fluoro-1′,2′-dihydrospiro[cyclopropane-1,3′-indole]-2′-one] | 2.79 µM |  | 2.75 µM
CS(=O)(=O)N1CCN(c2nc(N3CCC(N)C3)ncc2CN2C(=O)C3(CC3)c3ccc(F)cc32)CC1 (centres unmarked) [Compound 14, 1′-{[2-(3-Aminopyrrolidin-1-yl)-4-(4-methanesulfonylpiperazin-1-yl)pyrimidin-5-yl]methyl}-6′-fluoro-1′,2′ dihydrospiro[cyclopropane-1,3′-indole]-2′-one] | 1.2 µM |  | 
CC(C)CCNc1nc(N2CCCC2)ncc1CN1C(=O)C2(CC2)c2ccc(F)cc21 [Compound 7, 6′-Fluoro-1′-((4-(isopentylamino)-2-(pyrrolidin-1-yl)pyrimidin-5-yl)methyl)spiro[cyclopropane-1,3′-indolin]-2′-one] | 1.99 µM |  | 
COCCCNc1nc(N2CCC(N)C2)ncc1CN1C(=O)C2(CC2)c2ccc(F)cc21 (centres unmarked) [Compound 11, 1′-((2-(3-Aminopyrrolidin-1-yl)-4-((3-methoxypropyl)amino)pyrimidin-5-yl)methyl)-6′-fluorospiro[cyclopropane-1,3′-indolin]-2′-one] | 0.424 µM |  | 
NC1CCN(c2ncc(CN3C(=O)C4(CCC4)c4ccc(F)cc43)c(N[C@H]3CC[C@H](O)CC3)n2)C1 (some centres unmarked) [Compound 20, 1′-{[2-(3-Aminopyrrolidin-1-yl)-4-[(4-hydroxycyclohexyl)amino]pyrimidin-5-yl]methyl}-6′-fluoro-1′,2′-dihydrospiro[cyclobutane-1,3′-indole]-2′-one] | 1.95 µM | 0.116 µM | 
CS(=O)(=O)CCNc1nc(N2CCC(N)C2)ncc1CN1C(=O)C2(CC2)c2ccc(F)cc21 (centres unmarked) [Compound 18, 1′-{[2-(3-Aminopyrrolidin-1-yl)-4-[(2-methanesulfonylethyl)amino]pyrimidin-5-yl]methyl}-6′-fluoro-1′,2′-dihydrospiro[cyclopropane-1,3′-indole]-2′-one] | 0.885 µM |  | 
CC(C)CNc1nc(N2CCOCC2)ncc1CN1C(=O)C2(CC2)c2ccc(F)cc21 [Compound 8, 6′-Fluoro-1′-((4-(isobutylamino)-2-morpholinopyrimidin-5-yl)methyl)spiro[cyclopropane-1,3′-indolin]-2′-one] | 8.53 µM |  | 
NC1CCN(c2ncc(CN3C(=O)C4(CC4)c4ccc(F)cc43)c(NCCN3CCOCC3)n2)C1 (centres unmarked) [Compound 3, 1′-((2-(3-Aminopyrrolidin-1-yl)-4-((2-morpholinoethyl)amino)pyrimidin-5-yl)methyl)-6′-fluorospiro[cyclopropane-1,3′-indolin]-2′-one] | 4.18 µM |  | 
NC1CCN(c2ncc(CN3C(=O)C4(CC4)c4ccc(F)cc43)c(OCCCF)n2)C1 (centres unmarked) [Compound 22, 1′-{[2-(3-Aminopyrrolidin-1-yl)-4-(3-fluoropropoxy)pyrimidin-5-yl]methyl}-6′-fluoro-1′,2′-dihydrospiro[cyclopropane-1,3′-indole]-2′-one] | 0.951 µM |  | 
CC(=O)N1CCN(c2nc(N3CCC(N)C3)ncc2CN2C(=O)C3(CC3)c3ccc(F)cc32)CC1 (centres unmarked) [Compound 17, 1′-{[4-(4-Acetylpiperazin-1-yl)-2-(3-aminopyrrolidin-1-yl)pyrimidin-5-yl]methyl}-6′-fluoro-1′,2′-dihydrospiro[cyclopropane-1,3′-indole]-2′-one] | 5.46 µM |  | 
NC1CCN(c2ncc(CN3C(=O)C4(CC4)c4ccc(F)cc43)c(NCCCCO)n2)CC1 [Compound 24, 1′-{[2-(4-Aminopiperidin-1-yl)-4-[(4-hydroxybutyl)amino]pyrimidin-5-yl]methyl}-6′-fluoro-1′,2′-dihydrospiro[cyclopropane-1,3′-indole]-2′-one] | 0.695 µM |  | 
NC1CCN(c2nc(NCCCCO)ncc2CN2C(=O)C3(CC3)c3ccc(F)cc32)C1 (centres unmarked) [Compound 12, 1′-((4-(3-Aminopyrrolidin-1-yl)-2-((4-hydroxybutyl)amino)pyrimidin-5-yl)methyl)-6′-fluorospiro[cyclopropane-1,3′-indolin]-2′-one] | 4.78 µM |  | 
NC1CCN(c2ncc(CN3C(=O)C4(CC4)c4ccc(F)cc43)c(NCC3CCOCC3)n2)C1 (centres unmarked) [Compound 23, 1′-{[2-(3-Aminopyrrolidin-1-yl)-4-{[(oxan-4-yl)methyl]amino}pyrimidin-5-yl]methyl}-6′-fluoro-1′,2′-dihydrospiro[cyclopropane-1,3′-indole]-2′-one] | 0.451 µM |  | 
CC(C)CNc1nc(N2CCC(CN)CC2)ncc1CN1C(=O)C2(CC2)c2ccc(F)cc21 [Compound 6] | 5.22 µM |  | 
NC1CCN(c2ncc(CN3C(=O)C4(CC4)c4ccc(F)cc43)c(C#CCCCO)n2)C1 (centres unmarked) [Compound 21, 1′-{[2-(3-Aminopyrrolidin-1-yl)-4-(5-hydroxypent-1-yn-1-yl)pyrimidin-5-yl]methyl}-6′-fluoro-1′,2′-dihydrospiro[cyclopropane-1,3′-indole]-2′-one] |  |  | 25.1 µM
